# Data as given in patent publication US20170168056A1, “METHODS AND COMPOSITIONS FOR DETECTING AND MODULATING CANCER CELLS” (Massachusetts Institute of Technology, priority 2015, published 2017).
# How the values were obtained:
# MDA-MB-231 cells [1] = test: Cell viability assay (Prestoblue) in MDA-MB-231 cells expressing GFP, GFP-Mena or GFP-Mena^INV; conditions: 72 h; for effect of Mena or Mena^INV expression on fraction of viable cells / response to drug: range of concentrations
# Method: Cell viability assays were performed in a 96-well plate. 5,000 cells were plated per well and treated with drug 24 hours later. Cell viability was assayed 72 hours later using the PrestoBlue Cell Viability Reagent (Life Technologies), according to manufacturer's protocol. Fluorescence was measured and normalized to cells exposed to vehicle. The activity area was calculated from doseresponse plots using Matlab. All measurements were repeated in triplicate.
# [2] = system: MDA-MB-231 xenograft tumors; test: Xenograft tumor growth in NOD-SCID mice with chemotherapy treatment; type: in vivo, mouse; conditions: three doses Taxol/paclitaxel 10 mg/kg or two doses Doxorubicin 5 mg/kg
# Method: Mena or Mena^INV expression blocks Taxol efficacy on tumors in treated animals. Mice with xenograft tumors were generated by injection of MDA-MB-231 cells expressing GFP (Control), GFP-Mena (Mena) or GFP-Mena^INV (Mena^INV) into the mammary fat pads of NOD-SCID mice. […] Tumor size was measured before and after treatment. […] These in vivo findings are consistent with the results obtained in the in vitro data, and indicate that Men/Mena^INV promotes resistance to Taxol as judged by tumor growth.
# Xenograft tumor generation and in vivo chemotherapy treatment. All animal experiments were approved by the MIT Division of Comparative Medicine. 2 million MDA-MB-231 cells expressing different MENA isoforms (in PBS and 20% collagen I) were injected into the 4th right mammary fat pad of six week-old female NOD-SCID mice (Taconic). When the tumors reached 1 cm in diameter, mice were treated every five days with either three doses of paclitaxel at 10 mg/kg in 1% DMSO, 3% PEG (MW 400), 1% Tween 80 in PBS by intra-peritoneal injection. In parallel, mice were treated with only in 1% DMSO, 3% PEG (MW 400), 1% Tween 80 in PBS as a vehicle control. One day after the last injection, tumors were measured and mice were use for intravital imaging and then sacrificed. Their tumors and lungs were fixed in 10% formalin overnight, their bone marrow were collected using PBS and cultured in DMEM with 10% fetal bovine serum. The number of tumor cell colonies in cultured bone morrow was counted 1 month after collection. The number of metastasis in each lobe of the lung were counted from lung H&E stained sections visualized by light microscopy and counted by two blinded individuals. Each tumor group contained 3-5 mice.
# MENA isoform expression is associated with increased tumor growth in vivo during paclitaxel treatment. Whether MENA-associated paclitaxel resistance could also be observed in vivo was examined. Xenograft tumors were generated by injecting MDA-MB-231 cells expressing MENA isoforms into the mammary fat pads of NOD-SCID mice. Mice were treated with paclitaxel once tumors reached 1 cm in diameter (FIG. 30A).
# ERK, Akt = test: Western blot for pERK Y204, ERK, pAkt473 and Akt; type: cell-based, human; conditions: 231-MENA^INV cells; 10 nM paclitaxel, 0.1 μM MEKi, 72 hours
# Method: (§1) Western blot. Cells were lysed in 25 mM Tris, 150 mM NaCl, 10% glycerol, 1% NP 40 and […] EDTA with a protease Mini-complete protease inhibitors (Roche) and a phosphatase inhibitor cocktail (PhosSTOP, Roche) at 4° C. for 20 minutes. Protein lysates were separated by SDS-PAGE, transferred to a nitrocellulose membrane and blocked with Odyssey Blocking Buffer (LiCor). Membranes were incubated with primary antibody overnight at 4° C. and Licor secondary antibodies at room temperature for 1 hour. Protein level intensity was measured with Image J.
# (§2) The MAPK signaling cascade is among the key pathways known to interact with MTs. Both ERK1/2 interact with MTs; MT stabilization by paclitaxel increases ERK phosphorylation and, in turn, ERK pathway activation increases MT dynamics.
# MDA-MB-231 cells [3] = test: Proliferation assay (cell count) with combinations of paclitaxel and MEKi; type: cell-based, human
# microtubules (MT) = test: Immunofluorescence ratio of Glu-MT (stable) to Tyr-MT (dynamic); type: cell-based, human; conditions: 231-MENA^INV cells, 24 hours
# Method: Immunofluorescence. Glass bottom dishes (Mattek) were coated with Collagen at 0.1 mg/mL diluted in PBS and 50 μg/mL FN for 1 hour at 37° C. Cells were plated for 1 hour, and then treated with paclitaxel alone or in combination with MEKi for 24 hours. Cells were fixed for 20 minutes in 4% paraformaldehyde in PHEM buffer with 0.1% Gluteraldehyde, and then quenched with sodium borohydrate for 5 minutes. Cells were blocked with 2% BSA in TBS-0.1%TritonX-100 for 30 minutes, and incubated with primary antibodies and then secondary antibodies for 1 hour each, at room temperature. Z series of images were taken on an Applied Precision DeltaVision microscope using Softworx acquisition, an Olympus 60×1.4 NA plan apo objective and a Photometrics CoolSNAP HQ camera. Images were deconvolved using Deltavision Softworx software and objective specific point spread function. Images were analyzed with ImageJ, where the whole cell intensity levels of Tyr- or Glu-MT was measured. Images are pooled from at least 3 independent experiments.
# Paclitaxel promotes cell death by increasing the stability of MTs, and pathways driving increased MT dynamics are known to promote resistance to taxanes. Therefore, MT structure and dynamics in MENA isoform expressing cells was examined during paclitaxel treatment. […] Post-translational modification of MTs can regulate their dynamics, and antibodies that detect such modifications can be used to infer the relative dynamics of MT populations; in particular, MT tyrosination indicates a dynamic MT state, while de-tyrosination of MTs is associated with increased stability. The relative abundance of stable (Glu-MT) vs. dynamic (Tyr-MT) MTs was measured in individual cells by immunofluorescence with anti-Glu-MT and anti-Tyr-MT antibodies (FIGS. 37A, 37B).
# as §2
# Mena = Mena expression in cultured cells after taxane treatment (Western blot, FACS of GFP); type: cell-based, human; conditions: MDA-MB-231 populations expressing GFP, GFP-MENA or GFP-MENA^INV
# Method: Taxol treatment induces increased Mena protein expression in vitro and in vivo. As high level of Mena or Mena^INV expression correlated with low response to Taxo, we hypothesized that Taxol treatment might affect Mena expression. […]. After 72 h of treatment with the drug, the expression level of Mena was 70% higher than in vehicle-treated cells.
# as §1
# Paclitaxel treatment selects for high MENA expression in vitro and in vivo. The Examples so far indicate that increased MENA or MENA^INV expression levels are associated with reduced responses to paclitaxel. The effect of paclitaxel treatment on levels of MENA expression in cell populations in vitro and in vivo was examined. First, endogenous MENA expression by Western Blot in 5 breast cancer cell lines that were exposed to 100 nM of paclitaxel or a vehicle control were analyzed (FIG. 33A).
# T47D cells = test: Wound closure assay and morphology (circularity), T47D cells with Mena^11a-specific shRNA; type: cell-based, human; conditions: for percent of cell free region filled (gap closure): 48 hours; for circularity of cells at the free edge of the monolayer: perfect circularity=1
# Text: (§3) The Mena^11a knockdown procedure employed shRNAs was based on 97-mer oligos (Invitrogen) comprising the shRNAs amplified by PCR with primers having EcoRI/XhoI sites, and were cloned into the pMSCV-miR30-MLS-GFP vector (gift from Michael Hemann, Koch Institute, MIT). Oligo sequences are:
# Signal intensities from antibodies or rhodamine-labeled barbed ends along the cell edge were quantified with a contour-based ImageJ macro. We measured the distribution of signal along the membrane plotted as a function of distance from the cell edge (mean±SEM) and the sum of the intensities in the first 0.65 μm from the cell edge. Circularity measures were performed by manually tracing the cells at the free edge of the epithelial monolayer, and by using the circularity plugin built in ImageJ. In this analysis, a circularity value of 1 indicates a perfect circle while, as the value approaches 0, it indicates an elongated cell shape. For quantitative imaging, we used the same hardware configuration and exposure time for all cell lines analyzed in the same experiment. […] Extracted pixel intensities were exported to Microsoft Excel for analysis and Graph-Pad Prism for graphing.
# (§4) Mena^11a-specific depletion enhances cell migration and membrane protrusion. Previously, the effects of Mena^11a on cancer cell motility were evaluated in assays utilizing ectopic expression. To study the role of endogenously expressed Mena^11a on cancer cell motility, we used Mena^11a-KD cells, including T47D and SKBr3 human breast cancer cells which have >80% reduction of Mena^11a protein levels (FIG. 15A-B, 15E-F), in wound closure assays. […] T47D cells yielded similar results (FIG. 15C-D), although complete closure of the control T47D cells took longer than with SKBr3 cells. […] Therefore, depletion of the Mena^11a isoform from cells that normally express both Mena and Mena^11a increased cell migration rates.
# Consistent with changes in migration, we observed that the morphology of T47D Mena^11a-KD cells differed from control-KD cells, specifically at the free edge of the monolayer (FIG. 151).
# SKBr3 cells = test: Wound closure assay, SKBr3 cells with Mena^11a-specific shRNA; type: cell-based, human; conditions: twenty-four hours
# Method: as §3, §4
molecule,measurement,setting,value
N.N.[Cl][Pt][Cl] [Cisplatin],effect of Mena or Mena^INV expression on fraction of viable cells / response to drug,MDA-MB-231 cells [1],neither GFP-Mena nor GFP-MenaINV expression affected the fraction of viable MDA-MB-231 cells differently than the GFP controls
same,effect of Mena or Mena^INV expression on fraction of viable cells / response to drug,MDA-MB-231 cells [1]; listed as cisplatin,neither MENA nor MENA^INV expression affected the response
COc1cccc2c1C(=O)c1c(O)c3c(c(O)c1C2=O)C[C@@](O)(C(=O)CO)C[C@@H]3O[C@H]1C[C@H](N)[C@H](O)[C@H](C)O1 [Doxorubicin],effect of Mena or Mena^INV expression on fraction of viable cells / response to drug,MDA-MB-231 cells [1],neither MENA nor MENA^INV expression affected the response
same,growth of control tumors compared to vehicle,[2]; GFP (Control) tumors,significantly decreased growth of control tumors
same,growth / response of Mena or Mena^INV tumors,[2]; Mena or Mena^INV expressing tumors,decreased response
COc1cc2c(cc1OC)CN(CCc1ccc(-n3nnc(-c4cc(OC)c(OC)cc4NC(=O)c4cc(=O)c5ccccc5o4)n3)cc1)CC2 [HM30181],fraction of viable cells on co-treatment with 100 nM paclitaxel,"MDA-MB-231 cells [1]; 231-Control cells, HM30181 100 nM",negligibly affected
same,paclitaxel efficacy on co-treatment with MDR1 inhibitor,"MDA-MB-231 cells [1]; 231-MENA^INV cells, 100 nM paclitaxel",did not increase paclitaxel efficacy
O=C(NOC[C@H](O)CO)c1ccc(F)c(F)c1Nc1ccc(I)cc1F [PD0325901],paclitaxel-induced ERK phosphorylation,"ERK, Akt",blocked
same,concentrations needed to obtain high levels of cell death relative to 231-Control cells,MDA-MB-231 cells [3]; 231-MENA and 231-MENA^INV cells,higher concentrations of each drug were needed
same,combination of paclitaxel and MEKi in proliferation assay (cell death),"MDA-MB-231 cells [3]; all cell lines, 72 hours, both drugs simultaneously",significant additive effects
same,"stable MTs relative to dynamic MTs, both drugs simultaneously",microtubules (MT); paclitaxel plus MEKi,induced increases in stable MTs relative to dynamic MTs
same,"stable MTs relative to dynamic MTs, either drug alone",microtubules (MT); single drug,had no effect
CC(=O)O[C@@]12CO[C@@H]1C[C@H](O)[C@@]1(C)C(=O)[C@H](O)C3=C(C)[C@@H](OC(=O)[C@H](O)[C@@H](NC(=O)OC(C)(C)C)c4ccccc4)C[C@@](O)([C@@H](OC(=O)c4ccccc4)[C@H]21)C3(C)C [docetaxel],FACS analysis of GFP expression levels after taxane treatment,Mena,"selected for cells expressing higher levels of GFP-MENA or GFP-MENA^INV, but not of GFP"
"sh-2C: paired control shRNA for sh-2, SEQ ID NO. 9 (nucleic acid) guide: TGCTGTTGACAGTGAGCGAAACAGGTCATAGGATTAATTATAGTGAAGCCACAGATGTATAATTAATCCTATGACCTGTTCTGCCTACTGCCTCGGA",percent of cell free region filled (gap closure),T47D cells,40.38% ±4.2
same,circularity of cells at the free edge of the monolayer,T47D cells,0.640
same,percent of initially cell-free region filled (gap closure),SKBr3 cells,55.24% ±1.8
"sh-2: shRNA targeting the 11a insertion of Mena^11a, SEQ ID NO. 8 (nucleic acid) guide: TGCTGTTGACAGTGAGCGCAACAGGTCCTATGATTCATTATAGTGAAGCCACAGATGTATAATGAATCATAGGACCTGTTATGCCTACTGCCTCGGA",percent of cell free region filled (gap closure),T47D cells,70.20% ±8.8
same,circularity of cells at the free edge of the monolayer,T47D cells,0.509
same,percent of initially cell-free region filled (gap closure),SKBr3 cells,77.84% ±3.6
"sh-1C: paired control shRNA for sh-1, SEQ ID NO. 7 (nucleic acid) guide: TGCTGTTGACAGTGAGCGAATGATTCCTTAAACAGCCCAATAGTGAAGCCACAGATGTATTGGGCTGTTTAAGGAATCATGTGCCTACTGCCTCGGA",percent of cell free region filled (gap closure),T47D cells,50.41% ±3.7
same,circularity of cells at the free edge of the monolayer,T47D cells,0.683
same,percent of initially cell-free region filled (gap closure),SKBr3 cells,49.03% ±4.2
"sh-1: shRNA targeting the 11a insertion of Mena^11a, SEQ ID NO. 6 (nucleic acid) guide: TGCTGTTGACAGTGAGCGCATGATTCATTACACAGACCAATAGTGAAGCCACAGATGTATTGGTCTGTGTAATGAATCATATGCCTACTGCCTCGGA",percent of cell free region filled (gap closure),T47D cells,78.39% ±4.8
same,circularity of cells at the free edge of the monolayer,T47D cells,0.614
same,percent of initially cell-free region filled (gap closure),SKBr3 cells,74.76% ±4.8
